Measured values published in ChEMBL document CHEMBL4177563, “The medicinal chemistry of Chikungunya virus” (Bioorg Med Chem, 2017).

Columns and labels:
[1] = Selectivity index, ratio of CC50 for BHK21 cells to EC50 for Chikungunya virus; type: toxicity; details: hamster, BHK-21 cells; read-out: Ratio CC50/EC50
Chikungunya virus [2] = test: Antiviral activity against Chikungunya virus LR2006-OPY1 infected in human Huh7.5 cells after 48 hrs by luciferase reporter gene assay; type: functional, organism-based; details: LR2006-OPY1, Huh7.5, 48 h
[3] = Selectivity index, ratio of CC50 for human Huh7.5 cells to EC50 for Chikungunya virus; type: toxicity; details: read-out: Ratio CC50/EC50
[4] = Cytotoxicity against BHK21 cells in presence of ATP by Celltiter-Glo assay; type: cell-based, Mesocricetus auratus; details: hamster, BHK-21 cells
Chikungunya virus [5] = test: Antiviral activity against Chikungunya virus LR2006-OPY1 infected in BHK21 cells after 48 hrs by luciferase reporter gene assay; type: functional, organism-based; details: LR2006-OPY1, BHK-21, 48 h
Chikungunya virus [6] = test: Antiviral activity against Chikungunya virus at 0.006 to 300 uM by cell based luciferase reporter gene assay relative to control; type: functional
[7] = Cytotoxicity against human Huh7.5 cells in presence of ATP by Celltiter-Glo assay; type: cell-based
Chikungunya virus [8] = test: Antiviral activity against Chikungunya virus LR2006 OPY1 infected in human MRC5 cells after 48 hrs by indirect immunofluorescence analysis; type: functional, organism-based; details: LR2006 OPY1, MRC5, 48 h
[9] = Selectivity index, ratio of CC50 for African green monkey Vero cells to IC50 for Chikungunya virus nsP2 protease; type: toxicity; details: read-out: Ratio CC50/IC50
[10] = Cytotoxicity against African green monkey Vero cells assessed as reduction in cell viability after 4 days by MTT assay; type: cell-based; details: chlorocebus sabaeus
Chikungunya virus [11] = test: Antiviral activity against Chikungunya virus KC969207 infected in African green monkey Vero cells after 48 hrs by MTT dye-based assay; type: functional, organism-based
Chikungunya virus [12] = test: Antiviral activity against Chikungunya virus C347 infected in African green monkey Vero cells assessed as inhibition of viral-induced cytopathic effect after 2 days by microscopic analysis; type: functional, organism-based; details: 48 h
[13] = Selectivity index, ratio of CC50 for African green monkey Vero cells to IC50 for Chikungunya virus KC969207; type: toxicity; details: read-out: Ratio CC50/IC50
[14] = Selectivity index, ratio of CC50 for BHK-21 cells to EC50 for Chikungunya virus 0810bTw; type: toxicity; details: hamster, read-out: Ratio CC50/EC50
Chikungunya virus [15] = test: Antiviral activity against Chikungunya virus infected in human U2OS cells by RT-qPCR analysis; type: functional, organism-based
Chikungunya virus [16] = test: Antiviral activity against Chikungunya virus infected in BHK-21 cells by RT-qPCR analysis; type: functional, organism-based
Chikungunya virus [17] = test: Antiviral activity against Chikungunya virus 0810bTw infected in BHK-21 cells by RT-qPCR analysis; type: functional, organism-based
[18] = Cytotoxicity against BHK21 cells assessed as reduction in cell viability after 16 hrs by CCK-8 assay; type: cell-based, Mesocricetus auratus; details: hamster, BHK-21 cells
Chikungunya virus [19] = test: Antiviral activity against Chikungunya virus 0611aTw infected in BHK-21 cells by RT-qPCR analysis; type: functional, organism-based
[20] = Selectivity index, ratio of CC50 for BHK-21 cells to EC50 for Chikungunya virus 0611aTw; type: toxicity; details: hamster, read-out: Ratio CC50/EC50
[21] = Cytotoxicity against human U2OS cells assessed as reduction in cell viability after 16 hrs by CCK-8 assay; type: cell-based
[22] = Selectivity index, ratio of CC50 for BHK-21 cells to EC50 for Chikungunya virus; type: toxicity; details: hamster, read-out: Ratio CC50/EC50
[23] = Selectivity index, ratio of CC50 for human U2OS cells to EC50 for Chikungunya virus; type: toxicity; details: read-out: Ratio CC50/EC50
[24] = Selectivity index, ratio of CC50 for African green monkey Vero cells to IC50 for Chikungunya virus KC969208; type: toxicity; details: read-out: Ratio CC50/IC50
Chikungunya virus [25] = test: Antiviral activity against Chikungunya virus KC969208 infected in African green monkey Vero cells after 48 hrs by MTT dye-based assay; type: functional, organism-based
Chikungunya virus [26] = test: Antiviral activity against Chikungunya virus 899 infected in African green monkey Vero A cells assessed as inhibition of virus-induced cytopathogenic effect measured on day 5 post infection by MTS/PMS based microscopic analysis; type: functional, organism-based; details: Chikungunya virus, 899, Vero, 120 h
Chikungunya virus [27] = test: Antiviral activity against Chikungunya virus 899 infected in African green monkey Vero A cells assessed as reduction in viral infectious progeny by end-point titration assay; type: functional, organism-based; details: Chikungunya virus, 899, Vero
[28] = Cytotoxicity against African green monkey Vero A cells assessed as reduction in cell viability measured on day 5 post infection by MTS/PMS based microscopic analysis; details: chlorocebus sabaeus
Chikungunya virus [29] = test: Antiviral activity against Chikungunya virus 899 infected in African green monkey Vero A cells by real-time qRT-PCR analysis; type: functional, organism-based; details: Chikungunya virus, 899, Vero
Dengue virus [30] = test: Antiviral activity against Dengue virus infected in human Huh-7 cells assessed as reduction in viral load at 1 uM; type: functional
Dengue virus [31] = test: Antiviral activity against Dengue virus infected in human K562 cells assessed as reduction in viral load at 1 uM; type: functional
Chikungunya virus [32] = test: Antiviral activity against Chikungunya virus infected in human Huh-7 cells assessed as reduction in viral load at 10 uM; type: functional
Chikungunya virus [33] = test: Antiviral activity against Chikungunya virus 899 infected in African green monkey Vero-A cells assessed as inhibition of viral-induced cytopathic effect measured on day 7 post infection by MTS/PMS assay; type: functional, organism-based; details: Chikungunya virus, 899, 168 h
Chikungunya virus [34] = test: Antiviral activity against Chikungunya virus LR2006-OPY1 infected in African green monkey Vero-A cells assessed as inhibition of viral-induced cytopathic effect measured on day 7 post infection by MTS/PMS assay; type: functional, organism-based; details: LR2006-OPY1, 168 h
Chikungunya virus [35] = test: Antiviral activity against Chikungunya virus venturini isolate (Italy 2008) infected in African green monkey Vero-A cells assessed as inhibition of viral-induced cytopathic effect measured on day 7 post infection by MTS/PMS assay; type: functional, organism-based; details: 168 h

COc1ccc2cc3[n+](cc2c1OC)CCc1cc2c(cc1-3)OCO2 [BERBERINE]
selectivity ratio [1]: > 55.6 | EC50 (Chikungunya virus [2]): 1.9 µM | selectivity ratio [3]: > 52.6 | CC50 [4]: > 100 µM | EC50 (Chikungunya virus [5]): 1.8 µM | Activity (Chikungunya virus [6]): >85% | CC50 [7]: > 100 µM

CCOC(=O)c1c(CS(=O)(=O)c2ccccc2)n(C)c2cc(Br)c(O)c(CN(C)C)c12
IC50 (Chikungunya virus [8]): > 56.4 µM

CCOc1ccc(/C=N/NC(=O)C2CC2c2ccc(C(C)(C)C)cc2)cc1OCC (stereo unspecified)
selectivity ratio [9]: 14

NC(=O)c1ncn([C@@H]2O[C@H](CO)[C@@H](O)[C@H]2O)n1 [RIBAVIRIN]
CC50 at 96 h [10]: 1620 µM | IC50 (Chikungunya virus [11]): 3.06 µM | EC50 (Chikungunya virus [12]): 341 µM | selectivity ratio [13]: 529

CC1=C(/C=C/C(C)=C/C=C/C(C)=C/C(=O)Nc2ccc(O)cc2)C(C)(C)CCC1 [FENRETINIDE]
selectivity ratio [1]: 10.3 | EC50 (Chikungunya virus [2]): 0.5 µM | selectivity ratio [3]: 29.9 | CC50 [4]: 31.5 µM | EC50 (Chikungunya virus [5]): 3.1 µM | Activity (Chikungunya virus [6]): 65% | CC50 [7]: 15.6 µM

O=C(Nc1ccc([N+](=O)[O-])cc1Cl)c1cc(Cl)ccc1O [NICLOSAMIDE]
selectivity ratio [14]: > 22.2 | EC50 (Chikungunya virus [15]): 0.36 µM | EC50 (Chikungunya virus [16]): 0.95 µM | EC50 (Chikungunya virus [17]): 0.9 µM | CC50 at 16 h [18]: > 20 µM | EC50 (Chikungunya virus [19]): 0.85 µM | selectivity ratio [20]: > 23.5 | CC50 at 16 h [21]: > 20 µM | selectivity ratio [22]: > 21 | selectivity ratio [23]: > 55.5

CCCCOC(=O)c1ccccc1C(=O)O
selectivity ratio [24]: 11.9 | CC50 at 96 h [10]: 340 µM | IC50 (Chikungunya virus [11]): 2.49 µM | IC50 (Chikungunya virus [25]): 28.6 µM | selectivity ratio [13]: 136

CC(C)CCCC(C)CCCC(C)CCCC(C)CCO (stereo unspecified)
selectivity ratio [24]: 2.11 | CC50 at 96 h [10]: 259 µM | IC50 (Chikungunya virus [11]): 1.66 µM | IC50 (Chikungunya virus [25]): 112 µM | selectivity ratio [13]: 156

CCCCCCCC(=O)O[C@H]1/C(=C/C(=O)OC)C[C@H]2C[C@H](COC)OC(=O)CCOc3ccccc3C(=O)OCC(C)(C)[C@]1(O)O2
EC50 (Chikungunya virus [26]): 7.5 µM | EC50 (Chikungunya virus [27]): 4.1 µM | CC50 at 5 days [28]: > 50 µM | EC50 (Chikungunya virus [29]): 6 µM

O=c1cnn([C@@H]2O[C@H](CO)[C@@H](O)[C@H]2O)c(=O)[nH]1 [6-AZAURIDINE]
EC50 (Chikungunya virus [12]): 0.82 µM

O=C1c2c(O)ccc([N+](=O)[O-])c2C(=O)c2c([N+](=O)[O-])ccc(O)c21
Activity (Dengue virus [30]): >1 log10PFU/ml | Activity (Dengue virus [31]): >1 log10PFU/ml | Activity (Chikungunya virus [32]): 1 log10PFU/ml

NC(=O)c1nc(F)cnc1O [FAVIPIRAVIR]
EC50 (Chikungunya virus [33]): 25 µM | EC50 (Chikungunya virus [34]): 25 µM | EC50 (Chikungunya virus [35]): 16 µM
